T/C data for 17 compounds are collected here from PubChem BioAssay AID248 (DTP/NCI, 2004).

The test system of this assay is L1210 leukemia ip in BDF1 mice, survival T/C. As to the kind of experiment: NCI In Vivo Anticancer Drug Screen. Data for tumor model L1210 Leukemia (intraperitoneal) in B6D2F1 (BDF1) mice. To be noted: higher = longer survival. The procedure, abridged: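 Transplanted-tumor mice were given test agent; controls received vehicle only. Survival readings from the two groups were divided (treated over control).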

[1] abbreviates: endpoint: mean survival time, dose: 100.0 mg/kg/injection, schedule: Q01DX009 (ip), vehicle: saline.
Where [2] appears, read: endpoint: mean survival time, dose: 100.0 mg/kg/injection, schedule: Q04DX003 (ip), vehicle: saline.
The mark [3] stands for this setting: endpoint: mean survival time, dose: 200.0 mg/kg/injection, schedule: Q01DX009 (ip), vehicle: saline.
[4] abbreviates: endpoint: mean survival time, dose: 200.0 mg/kg/injection, schedule: Q04DX003 (ip), vehicle: saline.
[5] abbreviates: endpoint: mean survival time, dose: 400.0 mg/kg/injection, schedule: Q01DX009 (ip), vehicle: saline.
Setting [6] is: endpoint: mean survival time, dose: 400.0 mg/kg/injection, schedule: Q04DX003 (ip), vehicle: saline.
Setting [7] is: endpoint: mean survival time, dose: 100.0 mg/kg/injection, schedule: Q04DX003 (ip), vehicle: Klucel (hydroxypropylcellulose) (HPC).
Where [8] appears, read: endpoint: mean survival time, dose: 200.0 mg/kg/injection, schedule: Q04DX003 (ip), vehicle: Klucel (hydroxypropylcellulose) (HPC).
Setting [9] is: endpoint: mean survival time, dose: 400.0 mg/kg/injection, schedule: Q04DX003 (ip), vehicle: Klucel (hydroxypropylcellulose) (HPC).
The mark [10] stands for this setting: endpoint: mean survival time, dose: 100.0 mg/kg/injection, schedule: Q01DX001 (ip), vehicle: saline.
Where [11] appears, read: endpoint: mean survival time, dose: 200.0 mg/kg/injection, schedule: Q01DX001 (ip), vehicle: saline.
Setting [12] is: endpoint: mean survival time, dose: 400.0 mg/kg/injection, schedule: Q01DX001 (ip), vehicle: saline.
Setting [13] is: endpoint: mean survival time, dose: 100.0 mg/kg/injection, schedule: Q01DX009 (ip), vehicle: Klucel (hydroxypropylcellulose) (HPC).
The mark [14] stands for this setting: endpoint: mean survival time, dose: 200.0 mg/kg/injection, schedule: Q01DX009 (ip), vehicle: Klucel (hydroxypropylcellulose) (HPC).
The mark [15] stands for this setting: endpoint: mean survival time, dose: 400.0 mg/kg/injection, schedule: Q01DX009 (ip), vehicle: Klucel (hydroxypropylcellulose) (HPC).
The mark [16] stands for this setting: endpoint: mean survival time, dose: 50.0 mg/kg/injection, schedule: Q01DX001 (ip), vehicle: carboxymethylcellulose (CMC).
The mark [17] stands for this setting: endpoint: mean survival time, dose: 100.0 mg/kg/injection, schedule: Q01DX001 (ip), vehicle: carboxymethylcellulose (CMC).
The mark [18] stands for this setting: endpoint: mean survival time, dose: 200.0 mg/kg/injection, schedule: Q01DX001 (ip), vehicle: carboxymethylcellulose (CMC).

Structures are written as SMILES. Several values for one entry are separate records, joined by “and”; a condition that tells them apart may be missing. Identical values can stand only once. Inconclusive results and toxic doses are left out.

Regarding `COC(=O)C(N)Cc1ccc(O)c(O)c1` (stereo not given), the T/C by setting is: under setting [1], 110 % of control; under setting [2], 102 % of control; under setting [3], 112 % of control; under setting [4], 98 % of control; under setting [5], 112 % of control; under setting [6], 102 % of control.

Consider `CCOC1(c2ccccc2)C(c2ccccc2)N1C(=O)c1ccc([N+](=O)[O-])cc1` (stereo not given), for which the T/C runs as follows: under setting [7], 92 % of control; under setting [8], 91 % of control; under setting [9], 92 % of control.

`O=C(O)c1cccn1-c1ccccc1`: the T/C was 102 % of control (endpoint: mean survival time, dose: 100.0 mg/kg/injection, schedule: Q01DX001 (ip), vehicle: saline with Tween-80); 96 % of control (endpoint: mean survival time, dose: 100.0 mg/kg/injection, schedule: Q04DX003 (ip), vehicle: other); 103 % of control (endpoint: mean survival time, dose: 200.0 mg/kg/injection, schedule: Q01DX001 (ip), vehicle: saline with Tween-80); 101 % of control (endpoint: mean survival time, dose: 200.0 mg/kg/injection, schedule: Q04DX003 (ip), vehicle: other); 96 % of control (endpoint: mean survival time, dose: 400.0 mg/kg/injection, schedule: Q01DX001 (ip), vehicle: saline with Tween-80); 89 % of control (endpoint: mean survival time, dose: 400.0 mg/kg/injection, schedule: Q04DX003 (ip), vehicle: other).

With `CCC/C=N/Nc1ccnc(SC)n1`, the T/C (endpoint: mean survival time, dose: 100.0 mg/kg/injection, schedule: Q01DX009 (ip), vehicle: gum acacia) was 97 % of control.

`CCC(O)C1CCCCN1` (stereo not given): the T/C (endpoint: mean survival time, dose: 100.0 mg/kg/injection, schedule: Q04DX003 (ip), vehicle: saline with Tween-80) was 91 % of control and the T/C (endpoint: mean survival time, dose: 200.0 mg/kg/injection, schedule: Q04DX003 (ip), vehicle: saline with Tween-80) was 104 % of control.

As to `COc1cccc(/C=C2\SC(=S)NC2=O)c1`, the T/C is, setting by setting: under setting [10], 101 % of control; under setting [11], 95 % of control; under setting [12], 95 % of control.

For `CN(C)/C=N\N(c1ccccc1)c1ccccc1`, the T/C is, setting by setting: (endpoint: mean survival time, dose: 100.0 mg/kg/injection, schedule: Q04DX002 (ip), vehicle: saline with Tween-80) 106 % of control; (endpoint: mean survival time, dose: 200.0 mg/kg/injection, schedule: Q04DX002 (ip), vehicle: saline with Tween-80) 98 % of control.

For `CC(C)(C)[Si](O)C(C)(C)C`, the T/C (endpoint: mean survival time, dose: 75.0 mg/kg/injection, schedule: Q01DX001 (ip), vehicle: saline) was 91 % of control; the T/C (endpoint: mean survival time, dose: 150.0 mg/kg/injection, schedule: Q01DX001 (ip), vehicle: saline) is 98 % of control; the T/C (endpoint: mean survival time, dose: 300.0 mg/kg/injection, schedule: Q01DX001 (ip), vehicle: saline) is 96 % of control.

As to `CC(=O)N1CCCC1=O`, the T/C runs as follows: under setting [13], 100 % of control; under setting [7], 96 % of control; under setting [14], 100 % of control; under setting [8], 102 % of control; under setting [15], 95 % of control; under setting [9], 102 % of control.

`NNC(=O)CO`: the T/C under setting [1] is 108 % of control; the T/C under setting [2] was 101 % of control; the T/C under setting [3] is 106 % of control; the T/C under setting [4] is 97 % of control; the T/C under setting [5] is 114 % of control; the T/C under setting [6] is 98 % of control.

Regarding `COC(=O)c1ccc(N=NN(C)C)cc1`, the T/C reads like this: (endpoint: median survival time, dose: 65.0 mg/kg/injection, schedule: Q01DX001 (ip), vehicle: steriod suspending solution) 100 % of control; (endpoint: median survival time, dose: 108.0 mg/kg/injection, schedule: Q01DX001 (ip), vehicle: steriod suspending solution) 110 % of control; (endpoint: median survival time, dose: 108.0 mg/kg/injection, schedule: Q01DX009 (ip), vehicle: steriod suspending solution) 100 % of control; (endpoint: median survival time, dose: 180.0 mg/kg/injection, schedule: Q01DX001 (ip), vehicle: steriod suspending solution) 110 % of control; (endpoint: median survival time, dose: 180.0 mg/kg/injection, schedule: Q04DX003 (ip), vehicle: steriod suspending solution) 150 % of control.

With `O=C(c1ccccc1)C1(c2ccccc2)CCP(c2ccccc2)(c2ccccc2)(c2ccccc2)O1` (stereo not given), the T/C (endpoint: mean survival time, dose: 15.0 mg/kg/injection, schedule: Q01DX001 (ip), vehicle: carboxymethylcellulose (CMC)) is 93 % of control; the T/C (endpoint: mean survival time, dose: 30.0 mg/kg/injection, schedule: Q01DX001 (ip), vehicle: carboxymethylcellulose (CMC)) was 95 % of control; the T/C (endpoint: mean survival time, dose: 60.0 mg/kg/injection, schedule: Q01DX001 (ip), vehicle: carboxymethylcellulose (CMC)) was 96 % of control.

`CC(C)NNC(=O)c1cccnc1`: the T/C is 97 % of control and 108 % of control (endpoint: mean survival time, dose: 25.0 mg/kg/injection, schedule: Q01DX009 (ip), vehicle: saline); 94 % of control and 103 % of control (endpoint: mean survival time, dose: 50.0 mg/kg/injection, schedule: Q01DX009 (ip), vehicle: saline); 95 % of control under setting [10]; 96 % of control under setting [2]; 96 % of control under setting [11]; 94 % of control under setting [3]. Moreover, the T/C is 98 % of control under setting [4], 95 % of control under setting [12] and 96 % of control under setting [6].

As to `CC(=O)Nc1ccc(C(=O)CCl)cc1`, the T/C reads like this: (endpoint: mean survival time, dose: 25.0 mg/kg/injection, schedule: Q01DX009 (ip), vehicle: Klucel (hydroxypropylcellulose) (HPC)) 95 % of control; (endpoint: mean survival time, dose: 25.0 mg/kg/injection, schedule: Q04DX003 (ip), vehicle: Klucel (hydroxypropylcellulose) (HPC)) 93 % of control and 101 % of control; under setting [16], 101 % of control; (endpoint: mean survival time, dose: 50.0 mg/kg/injection, schedule: Q01DX009 (ip), vehicle: Klucel (hydroxypropylcellulose) (HPC)) 88 % of control; (endpoint: mean survival time, dose: 50.0 mg/kg/injection, schedule: Q04DX003 (ip), vehicle: Klucel (hydroxypropylcellulose) (HPC)) 105 % of control; under setting [7], 110 % of control.

As to `NNC(=O)CNc1cc(Cl)cc(Cl)c1`, the T/C runs as follows: under setting [17], 94 % of control; (endpoint: mean survival time, dose: 100.0 mg/kg/injection, schedule: Q01DX009 (ip), vehicle: carboxymethylcellulose (CMC)) 92 % of control; (endpoint: mean survival time, dose: 100.0 mg/kg/injection, schedule: Q04DX002 (ip), vehicle: Klucel (hydroxypropylcellulose) (HPC)) 91 % of control; (endpoint: mean survival time, dose: 100.0 mg/kg/injection, schedule: Q04DX002 (ip), vehicle: carboxymethylcellulose (CMC)) 95 % of control and 100 % of control; (endpoint: mean survival time, dose: 100.0 mg/kg/injection, schedule: Q04DX003 (ip), vehicle: carboxymethylcellulose (CMC)) 92 % of control; under setting [18], 96 % of control. In addition, the T/C runs as follows: (endpoint: mean survival time, dose: 200.0 mg/kg/injection, schedule: Q01DX009 (ip), vehicle: carboxymethylcellulose (CMC)) 88 % of control; (endpoint: mean survival time, dose: 200.0 mg/kg/injection, schedule: Q04DX002 (ip), vehicle: Klucel (hydroxypropylcellulose) (HPC)) 109 % of control; (endpoint: mean survival time, dose: 200.0 mg/kg/injection, schedule: Q04DX002 (ip), vehicle: carboxymethylcellulose (CMC)) 95 % of control and 104 % of control; (endpoint: mean survival time, dose: 200.0 mg/kg/injection, schedule: Q04DX003 (ip), vehicle: carboxymethylcellulose (CMC)) 97 % of control; (endpoint: mean survival time, dose: 400.0 mg/kg/injection, schedule: Q04DX002 (ip), vehicle: carboxymethylcellulose (CMC)) 98 % of control.

Turning to `COC1=C(NC(C)(C)C)C(=O)C(OC)=C(NC(C)(C)C)C1=O`, the T/C under setting [16] was 103 % of control; the T/C under setting [17] is 97 % of control; the T/C under setting [13] is 109 % of control; the T/C under setting [7] was 98 % of control; the T/C under setting [18] was 109 % of control; the T/C under setting [14] is 95 % of control. In addition, the T/C by setting is: under setting [8], 96 % of control; (endpoint: mean survival time, dose: 400.0 mg/kg/injection, schedule: Q01DX001 (ip), vehicle: carboxymethylcellulose (CMC)) 109 % of control; under setting [15], 106 % of control; under setting [9], 100 % of control.

In the case of `COc1c(Br)cc(C(=O)C(C)C)c(O)c1C`, the T/C is 95 % of control (endpoint: mean survival time, dose: 75.0 mg/kg/injection, schedule: Q04DX003 (ip), vehicle: Klucel (hydroxypropylcellulose) (HPC)); 103 % of control (endpoint: mean survival time, dose: 150.0 mg/kg/injection, schedule: Q04DX003 (ip), vehicle: Klucel (hydroxypropylcellulose) (HPC)); 95 % of control (endpoint: mean survival time, dose: 300.0 mg/kg/injection, schedule: Q04DX003 (ip), vehicle: Klucel (hydroxypropylcellulose) (HPC)).
